# Measured values taken from ChEMBL document CHEMBL5335811, “2-Phenylcyclopropylmethylamine (PCPMA) as a privileged scaffold for central nervous system drug design” (Bioorg Med Chem Lett, 2024).
# Assays:
# [1] = Terminal elimination half life in Sprague-Dawley rat at 12 mg/kg, po; type: ADME, organism-based; conditions: in vivo, read-out: beta t1/2 (converted)
# [2] = organism: Mus musculus; test: Antidepressant activity in USV-induced Swiss albino mouse model of depression assessed as minimum effective dose; type: functional; conditions: read-out: MED
# [3] = Effect on emotional-affective response in USV-induced Sprague-Dawley rat assessed as reduction in ultrasonic vocalization; type: functional; conditions: read-out: MED
# [4] = organism: Mus musculus; test: Antidepressant activity in Swiss albino mouse assessed as minimum effective dose by tail suspension test; type: functional; conditions: read-out: MED
# [5] = biological target: Sigma non-opioid intracellular receptor 1 (Homo sapiens, UniProt Q99720); test: Binding affinity to sigma1 receptor (unknown origin) assessed as inhibition constant
# Sigma non-opioid intracellular receptor 1, sequence (Q99720 whole entry): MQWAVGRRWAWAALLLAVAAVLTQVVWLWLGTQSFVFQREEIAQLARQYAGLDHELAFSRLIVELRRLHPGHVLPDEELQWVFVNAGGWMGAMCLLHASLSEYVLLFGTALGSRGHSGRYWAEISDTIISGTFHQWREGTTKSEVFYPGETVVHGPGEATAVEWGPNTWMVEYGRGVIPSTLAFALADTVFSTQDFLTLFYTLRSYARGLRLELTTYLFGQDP
# [6] = biological target: Sigma intracellular receptor 2 (Homo sapiens, UniProt Q5BJF2); test: Binding affinity to sigma 2 receptor (unknown origin) assessed as inhibition constant
# Sigma intracellular receptor 2, sequence (Q5BJF2 whole entry): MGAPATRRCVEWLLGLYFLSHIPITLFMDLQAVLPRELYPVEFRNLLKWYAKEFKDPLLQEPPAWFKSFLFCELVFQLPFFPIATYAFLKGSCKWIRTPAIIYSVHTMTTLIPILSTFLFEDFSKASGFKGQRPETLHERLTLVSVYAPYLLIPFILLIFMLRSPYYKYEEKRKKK
# [7] = organism: Homo sapiens; test: Selectivity ratio of Ki for sigma 2 receptor (unknown origin) to Ki for sigma 1 receptor assessed as inhibition of constant
# [8] = biological target: T1, 5-hydroxytryptamine receptor 2A (Homo sapiens, UniProt P28223); test: Agonist activity at human 5HT2A receptor; type: functional
# T1 sequence (P28223 whole entry): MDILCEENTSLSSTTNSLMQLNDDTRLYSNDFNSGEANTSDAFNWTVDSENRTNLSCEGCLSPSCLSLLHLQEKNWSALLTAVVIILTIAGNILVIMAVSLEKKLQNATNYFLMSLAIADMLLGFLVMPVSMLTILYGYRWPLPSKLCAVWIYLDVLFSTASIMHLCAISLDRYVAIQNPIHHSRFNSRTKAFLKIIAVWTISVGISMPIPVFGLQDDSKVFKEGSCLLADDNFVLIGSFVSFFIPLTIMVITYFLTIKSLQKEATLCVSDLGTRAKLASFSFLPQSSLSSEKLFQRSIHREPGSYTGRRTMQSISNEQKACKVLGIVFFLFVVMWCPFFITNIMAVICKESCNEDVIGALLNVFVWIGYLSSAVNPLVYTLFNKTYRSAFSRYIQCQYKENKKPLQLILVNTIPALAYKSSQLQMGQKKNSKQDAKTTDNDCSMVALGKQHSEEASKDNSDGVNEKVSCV
# [9] = Binding affinity to MT1 receptor (unknown origin) assessed as inhibition constant; set-up: species or system Homo sapiens
# [10] = biological target: T2, Melatonin receptor type 1B (Homo sapiens, UniProt P49286); test: Binding affinity to MT2 receptor (unknown origin) assessed as inhibition constant
# T2 sequence (P49286 whole entry): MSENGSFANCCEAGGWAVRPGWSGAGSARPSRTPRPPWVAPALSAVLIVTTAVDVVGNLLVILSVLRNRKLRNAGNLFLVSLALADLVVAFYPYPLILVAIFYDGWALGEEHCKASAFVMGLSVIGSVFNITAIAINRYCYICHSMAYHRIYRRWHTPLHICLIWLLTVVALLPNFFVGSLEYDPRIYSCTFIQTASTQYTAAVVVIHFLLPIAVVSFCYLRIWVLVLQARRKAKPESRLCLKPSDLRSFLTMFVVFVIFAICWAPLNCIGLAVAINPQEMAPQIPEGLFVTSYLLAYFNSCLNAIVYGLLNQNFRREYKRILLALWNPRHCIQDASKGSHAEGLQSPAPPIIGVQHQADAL
# [11] = biological target: T3, 5-hydroxytryptamine receptor 2C (Homo sapiens, UniProt P28335); test: Agonist activity at 5HT2C receptor (unknown origin); type: functional
# T3 sequence (P28335 whole entry): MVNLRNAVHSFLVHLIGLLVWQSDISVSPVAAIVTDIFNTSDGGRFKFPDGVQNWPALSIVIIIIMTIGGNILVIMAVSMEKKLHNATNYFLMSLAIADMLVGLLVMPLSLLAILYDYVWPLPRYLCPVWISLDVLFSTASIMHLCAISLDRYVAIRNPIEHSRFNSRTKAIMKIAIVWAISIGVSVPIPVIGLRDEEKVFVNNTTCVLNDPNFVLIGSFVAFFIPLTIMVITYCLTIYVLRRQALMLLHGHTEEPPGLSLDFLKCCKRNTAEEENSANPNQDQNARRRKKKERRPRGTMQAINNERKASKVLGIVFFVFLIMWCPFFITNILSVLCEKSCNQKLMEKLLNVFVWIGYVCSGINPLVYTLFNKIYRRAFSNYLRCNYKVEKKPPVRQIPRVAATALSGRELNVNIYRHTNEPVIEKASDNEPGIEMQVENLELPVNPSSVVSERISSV
# [12] = biological target: T1, 5-hydroxytryptamine receptor 2A; test: Agonist activity at N-terminal HA-tagged human 5HT2A receptor; type: functional
# [13] = biological target: T4, 5-hydroxytryptamine receptor 2C (Homo sapiens) (UniProt P28335); test: Agonist activity at 5HT2C receptor (unknown origin) at 10 uM relative to control; type: functional; conditions: filed as agonist
# T4 sequence (whole entry): T3 sequence (P28335 whole entry)
# [14] = biological target: T1, 5-hydroxytryptamine receptor 2A; test: Agonist activity at 5HT2A receptor (unknown origin) at 10 uM relative to control; type: functional
# [15] = biological target: T5, 5-hydroxytryptamine receptor 2B (Homo sapiens, UniProt P41595); test: Agonist activity at 5HT2B (unknown origin); type: functional
# T5 sequence (P41595 whole entry): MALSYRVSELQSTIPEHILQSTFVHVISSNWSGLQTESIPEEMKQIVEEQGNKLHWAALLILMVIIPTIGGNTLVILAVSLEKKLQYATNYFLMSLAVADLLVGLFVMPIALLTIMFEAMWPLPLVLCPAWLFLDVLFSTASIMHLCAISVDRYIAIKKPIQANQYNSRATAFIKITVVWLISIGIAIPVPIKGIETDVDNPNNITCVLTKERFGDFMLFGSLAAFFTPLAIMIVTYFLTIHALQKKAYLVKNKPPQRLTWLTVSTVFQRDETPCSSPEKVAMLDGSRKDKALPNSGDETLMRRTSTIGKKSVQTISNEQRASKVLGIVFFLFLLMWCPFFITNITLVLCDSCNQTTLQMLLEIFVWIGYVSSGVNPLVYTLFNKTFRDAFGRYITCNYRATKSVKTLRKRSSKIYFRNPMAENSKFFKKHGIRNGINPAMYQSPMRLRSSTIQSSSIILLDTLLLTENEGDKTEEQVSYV
# [16] = biological target: T4, 5-hydroxytryptamine receptor 2C (Homo sapiens); test: Agonist activity at 5HT2C receptor (unknown origin) at 1 uM relative to control; type: functional; conditions: filed as agonist
# [17] = biological target: T5, 5-hydroxytryptamine receptor 2B; test: Agonist activity at 5HT2B (unknown origin) at 1 uM relative to control; type: functional
# [18] = biological target: T1, 5-hydroxytryptamine receptor 2A; test: Agonist activity at N-terminal HA-tagged human 5HT2A receptor at 1 uM relative to control; type: functional
compound,measurement,setting,value
CCN(CC)C(=O)[C@@]1(c2ccccc2)C[C@H]1CN [LEVOMILNACIPRAN],half-life,[1],12 h
same,minimal effective dose,[2],20 mg/kg
same,minimal effective dose,[3],5 mg/kg
same,minimal effective dose,[4],2.5 mg/kg
COC(=O)[C@]1(c2ccccc2)C[C@@H]1CN1CCC(O)(c2ccc(Cl)cc2)CC1,Ki,[5],1.51 nM
same,Ki,[6],21.9 nM
same,Selectivity ratio,[7],5.5
CC1(C)Cc2cc(Cl)cc([C@H]3C[C@H]3CN)c2O1,EC50,[8],600 nM
CCC(=O)NC[C@@H]1C[C@H]1c1cccc2c1CCO2 [TASIMELTEON],Ki,[9],0.3 nM
same,Ki,[10],0.07 nM
NC[C@@H]1C[C@@H]1c1cc(O)ccc1OCC1CC1,EC50,[11],9.3 nM
same,EC50,[12],372 nM
same,Emax,[13],70%
same,Emax,[14],18%
NC[C@@H]1C[C@@H]1c1cc(F)ccc1OCC1CC1,EC50,[11],21 nM
same,EC50,[15],289 nM
same,EC50,[12],894 nM
same,Emax,[16],71%
same,Emax,[17],21%
same,Emax,[18],29%
